The values that follow come from PMC9737391, “Trifluoromethylcinnamanilide Michael Acceptors for Treatment of Resistant Bacterial Infections” (International Journal of Molecular Sciences, 2022).

In brackets after ≈: the same amount, converted by molar mass. Several values for one entry are separate records, joined by “and”; a condition that tells them apart may be missing. Equal values may be shown once.

What is called MBC is the lowest tested concentration that kills the bacteria rather than only halting them. The low end stands for greater bactericidal potency, the high end for weaker bactericidal potency. The IC50 is the concentration needed to halve the response being measured. What is called melting point is the temperature of the solid-liquid transition.

Data set [1] can be described thus: Lipophilicity determination by RP-HPLC. Type of data set: physicochemical. Conditions: RP-HPLC, logarithm of capacity factor k. As to the method:
It is evident from the graphs in Figure 1 that the correlation coefficients of the dependences of log k/log D6.5/log D7.4 have a value of r = 0.999 (n = 32), which means that the investigated compounds behave insignificantly differently in aqueous media with different pH. Moreover, lipophilicity was calculated as log P and Clog P using two prediction programs. […] Therefore, only log P values predicted by ACD/Percepta can be used for correlations with experimental values. These matches are shown in the graphs in Figure 2, and according to the correlation coefficient r~0.940 (n = 32), it can be argued that even the predicted lipophilicity values correlate with the experimentally measured ones. However, the largest variations were observed (no difference for series 1, 2) for compounds substituted with 2-Cl, 2-CF3, 2,5-Cl, 4-F, 4-CF3, and 3,5-F, 3,5-Cl. These are mainly substituents capable of forming hydrogen and other types of non-bonding interactions both with the surrounding environment and within the molecule. Overall, series 1 (3-CF3) is less lipophilic than series 2 (4-CF3), but the differences in the experimental data are insignificant. Unsubstituted derivatives 1a/2a are the least lipophilic compounds, while derivatives 1o/2o (3,5-Cl) and 1p/2p (3,5-CF3) are the most lipophilic compounds.
Experimental determination of lipophilicity values (log k, log D6.5, and log D7.4) was performed under the same conditions and on the same device as described by Strharsky et al..

Data set [2] concerns M. smegmatis ATCC 700084. Nature of the data set: In vitro antimycobacterial evaluation (MIC). Conditions: Mycolicibacterium smegmatis, ATCC700084. Type of data set: cell-based, Mycobacterium smegmatis.
The test system of data set [3] is M. smegmatis and M. marinum. Nature of the data set: Antimycobacterial activity, summary over both strains. Conditions: average over the named compounds and strains; read-out: average MIC against M. smegmatis and M. marinum. It is filed as cell-based.
For data set [4], the system named is vancomycin-resistant E. faecalis VRE 368 (VRE2). The data set is described as follows: MBC, agar aliquot subculture method. Type of data set: cell-based, Enterococcus faecalis.
Data set [5] relates to Mycobacterium marinum CAMP 5644. The data set is described as follows: In vitro antimycobacterial evaluation (MIC). It is filed as cell-based.
Data set [6] relates to methicillin-resistant S. aureus SA 3202 (MRSA1). Nature of the data set: MIC, microtitration broth method. Conditions: Staphylococcus aureus; MRSA SA 3202. It is filed as cell-based.
The test system is the same in data set [7]. Nature of the data set: MBC, agar aliquot subculture method. It is filed as cell-based. As to conditions: Staphylococcus aureus; MRSA SA 3202.
Data set [8] has as its system human monocytic leukemia cell line THP-1. Nature of the data set: In vitro cell viability (cytotoxicity screening). Type of data set: cell-based. As to conditions: 24 h, medium with 10% FBS, ± SD, n = 6. The protocol: The investigated anilides can be divided into three groups. […] Higher concentrations (than 10 or 30 µM) were not possible to evaluate due to precipitation of the tested compounds in water medium. Based on all these observations, it can be concluded that the high antimicrobial activity of 3,5-CF3-substituted compounds is associated with significant cytotoxic effect against eukaryotic cells. On the other hand, the other still effective compounds, especially agents 1j and 1o, have an insignificant toxic effect, which makes them interesting for further study.
Human monocytic leukemia THP-1 cells obtained from the European Collection of Cell Cultures (ECACC, Salisbury, UK) were used for in vitro antiproliferative assays. A recently described procedure was used.

In data set [9] the test system is S. aureus/MRSA. Nature of the data set: Antistaphylococcal activity, summary over strains. Type of data set: cell-based, Staphylococcus aureus.
The subject of data set [10] is Enterococcus faecalis ATCC 29212. The data set is described as follows: MIC, microtitration broth method. It is filed as cell-based. Conditions: ATCC29212, E. faecalis reference strain.
In data set [11] the test system is methicillin-resistant S. aureus SA 630 (MRSA2). Nature of the data set: MBC, agar aliquot subculture method. Type of data set: cell-based. Conditions: Staphylococcus aureus; MRSA SA 630.
The subject of data set [12] is methicillin-resistant S. aureus 63718 (MRSA3). The data set is described as follows: MIC, microtitration broth method. Type of data set: cell-based. As to conditions: Staphylococcus aureus; MRSA 63718.
Data set [13] concerns Staphylococcus aureus ATCC 29213. The data set is described as follows: MBC, agar aliquot subculture method. Type of data set: cell-based. Conditions: ATCC29213, S. aureus ATCC 29213.
For data set [14], the system named is vancomycin-resistant E. faecalis VRE 342B (VRE1). Nature of the data set: MIC, microtitration broth method. Type of data set: cell-based, Enterococcus faecalis.
The subject of data set [15] is methicillin-resistant S. aureus 63718 (MRSA3). The data set is described as follows: MBC, agar aliquot subculture method. It is filed as cell-based. Conditions: Staphylococcus aureus; MRSA 63718.
Data set [16] has as its system vancomycin-resistant E. faecalis VRE 342B (VRE1). The data set is described as follows: MBC, agar aliquot subculture method. It is filed as cell-based, Enterococcus faecalis.
Data set [17] relates to E. faecalis/VRE. Nature of the data set: Anti-enterococcal activity, summary over strains. Type of data set: cell-based, Enterococcus faecalis.
The test system of data set [18] is Staphylococcus aureus ATCC 29213. The data set is described as follows: MIC, microtitration broth method. It is filed as cell-based. As to conditions: ATCC29213, S. aureus ATCC 29213.
Data set [19] deals with vancomycin-resistant E. faecalis VRE 368 (VRE2). Nature of the data set: MIC, microtitration broth method. Type of data set: cell-based, Enterococcus faecalis.
Data set [20] concerns Enterococcus faecalis ATCC 29212. The data set is described as follows: MBC, agar aliquot subculture method. It is filed as cell-based. As to conditions: ATCC29212, E. faecalis reference strain.
In data set [21] the test system is methicillin-resistant S. aureus SA 630 (MRSA2). The data set is described as follows: MIC, microtitration broth method. Type of data set: cell-based. Conditions: Staphylococcus aureus; MRSA SA 630.
Data set [22] deals with vancomycin-resistant E. faecalis VRE 725B (VRE3). The data set is described as follows: MIC, microtitration broth method. Type of data set: cell-based, Enterococcus faecalis.
For data set [23] the test system is unchanged. The data set is described as follows: MBC, agar aliquot subculture method. It is filed as cell-based, Enterococcus faecalis.
For data set [24], the system named is S. aureus ATCC 29213. The data set is described as follows: MTT assay, inhibition of bacterial respiration. It is filed as cell-based, Staphylococcus aureus. From the text: The MTT assay can be used to assess cell growth by measuring respiration. Respiratory activity of bacterial cells (which is finally reflected in their viability) less than 70% after exposure to the MIC values for each tested compound is considered as a positive result of this assay. This low level of cell oxidative metabolism indicates inhibition of cell growth by inhibition of respiration. The lowest multiples of MIC values that achieved more than 70% inhibition of S. aureus ATCC 29213 viability (%) are shown in Table 3.
The percent inhibition of respiration of S. aureus ATCC 29213 was determined through the MTT assay. The assay was performed as described recently. The percent viability is calculated through the comparison of a measured value and that of the uninhibited control: % viability = OD570E/OD570P × 100, where OD570E is the reading from the compound-exposed cells, while OD570P is the reading from the uninhibited cells (positive control). Cytotoxic potential is determined by a percent viability of <70% [46, 47].
Background: Tetrazolium dyes change colour on reduction, which living cells bring about.

For data set [25], the system named is S. aureus ATCC 29213. Conditions: MTT, at MIC value; cited from earlier work.
In data set [26] the test system is M. tuberculosis H37Ra. The arrangement: method as in ref 26 = [26]; PMID 30087309; doi:10.3390/ijms19082318; 26. Pospisilova S. Kos J. Michnova H. Kapustikova I. Strharsky T. Oravec M. Moricz A.M. Bakonyi J. Kauerova T. Kollar P. Synthesis and spectrum of biological activities of novel N -arylcinnamamides In. Conditions: average over the named compounds; cited from earlier work.

On to `O=C(/C=C/c1ccc(C(F)(F)F)cc1)Nc1cc(C(F)(F)F)cc(C(F)(F)F)c1` [2p, (2E)-N-[3,5-bis(Trifluoromethyl)phenyl]-3-[4-(trifluoromethyl)phenyl]prop-2-enamide], for which the melting point was 207 to 209 °C. In data set [1], the log k was 1.3665. The compound also registered an MIC in data set [2] of 1.17 µM (≈ 0.5 µg/mL). The MIC in [3] is ~4.1 µM (≈ 1.75 µg/mL). The compound also registered an MBC in data set [4] of 9.36 µM (≈ 4 µg/mL). Besides, the “MIC MM” value in data set [5] (M. marinum CAMP 5644) is listed as 0.293 – µM. The MIC in data set [5] (Mycobacterium marinum, CAMP5644, M. marinum CAMP 5644) fell in the range of 0.29 to 22.2 µM (≈ 0.124 to 9.49 µg/mL). Also, in data set [6], the MIC came out at 0.585 µM (≈ 0.25 µg/mL). The same compound yielded an MBC in [7] of 0.585 µM (≈ 0.25 µg/mL). This compound showed a half-maximal inhibitory concentration (IC50) in data set [8] of 8.9 ± 1.3 µM. Besides, in [9] (Staphylococcus aureus, MRSA, average over the named compounds and strains, read-out: average MIC against S. aureus/MRSA), the MIC was ~1.4 µM (≈ 0.598 µg/mL). For the same compound, the “antistaphylococcal MICs/MBCs” value in data set [9] (range over S. aureus and MRSA isolates and over the named compounds) is 0.15 to 5.57 µM and 0.146 to 5.57 µM. Moreover, in data set [10], the MIC came to 2.34 µM (≈ 1 µg/mL). The MBC in data set [11] was 0.585 µM (≈ 0.25 µg/mL). In data set [12], the MIC is 0.293 µM (≈ 0.125 µg/mL). Further, the minimal bactericidal concentration (MBC) in data set [13] stood at 0.146 µM (≈ 0.0624 µg/mL). Also, the MIC in data set [14] came to 2.34 µM (≈ 1 µg/mL). In addition, the MBC in [15] worked out at 0.293 µM (≈ 0.125 µg/mL). Also, the MBC in [16] is 4.68 µM (≈ 2 µg/mL). Moreover, the MIC in data set [17] (Enterococcus faecalis, VRE, average over the named compounds and strains, read-out: average MIC against E. faecalis/VRE) was ~15 µM (≈ 6.41 µg/mL). The “anti-enterococcal MICs/MBCs” value in data set [17] (range over E. faecalis and VRE isolates and over the named compounds) is 2.34 to 44.5 µM. In addition, the MIC in data set [18] is 0.146 µM (≈ 0.0624 µg/mL). The compound also returned an MIC in data set [19] of 4.68 µM (≈ 2 µg/mL). This compound showed an MBC in data set [20] of 4.68 µM (≈ 2 µg/mL). The compound further showed an MIC in [21] of 0.293 µM (≈ 0.125 µg/mL). This compound also had an MIC in data set [22] of 2.34 µM (≈ 1 µg/mL). In data set [23], this compound came in with an MBC of 2.34 µM (≈ 1 µg/mL). Also, in data set [24], the “Conc.: lowest multiple of MIC with at least 70% inhibition of respiratory activity” value is listed as 2× MIC (2× MBC) and the “Conc.: the same concentration as multiple of MBC” value is 2× MIC (2× MBC).

Consider `O=C(/C=C/c1ccccc1)Nc1ccc(C(F)(F)F)c(F)c1` [3c], for which, in data set [25], the “inhibition of S. aureus respiration” value is given as 86%.

For `O=C(/C=C/c1ccccc1)Nc1ccc(Cl)c(Cl)c1` [3e], the “average MIC against M. tuberculosis H37Ra” value in data set [26] is ~ 24 µM.
